The source of these data is patent publication US8465912B2, “Methods for the identification of agents that inhibit mesenchymal-like tumor cells or their formation” (OSI Pharmaceuticals, LLC, priority 2009, dated 2013).

What all share (format): cell-based, human
The test system of assay [1] is H1650 cells. In words: Doubling time of ligand-treated H1650 cells. To be noted: 7 days ligand, doubling time over following two weeks, versus untreated. Here is the method:
(§1) The human cell line, H1650 was cultured in […] containing 10% FBS, 2 mM L-Glutamine, and 1 mM sodium pyruvate, at 37° C., 5% CO2. Growth factor and cytokine induced EMT was monitored over 7 days. Growth factor and cytokines were obtained from commercial sources and used as follows: HGF (Hepatocyte growth factor) at 100 ng/ml, EGF (Epidermal Growth Factor) at 100 ng/ml, OSM (Oncostatin M) at 100 ng/ml, TGFβ1 (Transforming growth factor, beta 1) at 10 ng/ml, and TNFα (Tumor necrosis factor alpha) at 25 ng/ml.
Cells were plated and treated with ligand for 7 days. On day 7, cells were counted and re-plated on 6 cm cell culture dishes. On days 3, 5, 7, 10 and 12, cells were trypsinized and counted to determine the total number of cells in the dish, in duplicate. Doubling time was calculated using the multiple time point method on the website www.doubling-time.com.

The test system of assay [2] is H1650 cells. Put plainly: qPCR of EMT gene changes in response to ligand treatment. The settings on record: 7 days ligand, qPCR normalized to GAPDH and untreated control. Here is the method:
as §1
Cells were plated and treated with ligand for 7 days. At the time of harvest, cells were trypsinized and snap frozen for later use. Total RNA was isolated using RNAqueous-4 PCR Kit (Ambion, AM1914). Samples were DNase treated using the Turbo DNA-Free kit (Ambion, AM1907) and reverse transcribed using Superscript III (Invitrogen, 18080-044) for qPCR analysis. Taqman primers and Locked-Nucleic Acid probes were designed using ProbeFinder software (Universal Probe library, Roche). For mRNA analysis, real time PCR was performed using the ABI 7900HT series PCR machine. Thermocycle conditions were as follows: 50° C. for 2 minutes, 95° C. for 10 minutes, 95° C. for 15 seconds, 50° C. for 10 seconds, 60° C. for 1 minute. Data was collected over 45 cycles and then normalized to GAPDH and further normalized to the untreated control sample.

For assay [3], the system named is H1650 cells. Put plainly: Induction of EMT by growth factors and cytokines in 2D culture (immunoblot, morphology, confocal). To be noted: H1650 2D; for Induction of EMT (E-cadherin, vimentin, morphology): 7 days, HGF, EGF, OSM 100 ng/ml, TGFβ1 10 ng/ml, TNFα 25 ng/ml; for E-cadherin localization by confocal microscopy: 7 days ligand, untreated cells show membrane E-cadherin. Here is the method: as §1
Cells were harvested by washing once with PBS, and lysing on ice for 10 minutes with scraping (using a Cell Lifter, Corning Inc. #3008) in ice cold RIPA buffer (Sigma R0278) containing Protease inhibitor (Sigma P8340), Phosphatase inhibitors (Sigma P2850, P5726) and 200 μM Sodium Vanadate. Supernatents were micro-centrifuged at max speed, 4° C. for 10 minutes. Protein content was quantitated using the BCA method (Pierce #23225) and samples were normalized to total protein in Laemli buffer and heated at 100° C. for 10 minutes. SDS PAGE was run using a Bis-Tris gel system (Invitrogen NuPAGE) with MOPS buffer (Invitrogen NP0001), transferred onto nitrocellulose using the iBLOT system (Invitrogen) and blocked in PBS-T (0.1% Tween 20), 5% non-fat milk or BSA in guidance with primary Ab supplier requirements. All primary antibodies were incubated overnight at 4° C. in PBS-T (0.1% Tween 20) in either 5% non-fat milk or BSA, diluted to the following working dilutions: anti E Cadherin (Santa Cruz #sc-21791) 1:500 dilution; anti Vimentin (BD Biosciences #550513) 1:2000 dilution;); 1:1000 dilution; anti β-Actin (Sigma, A5441) 1:10,000 dilution. Secondary HRP labeled antibodies used were: anti Rabbit IgG HRP (Amersham NA934) 1:5000 dilution; anti Mouse IgG HRP (Sigma A2304) 1:2000 dilution. Membranes were visualized using the Supersignal ELISA Femto Maximum Sensitivity Substrate (Pierce).
Cells were fixed in 4% paraformaldehyde (Electron Microscopy Sciences #15710)/PBS (Gibco#14190) for 10 minutes at room temperature, washed with PBS and permeabilized with 0.1% Triton X100 (Sigma P1379) in PBS for 10 minutes at room temp. Cells were blocked with 3% BSA/PBS for at least 15 minutes then incubated with primary antibody diluted in blocking buffer for a minimum of two hours at room temperature. Anti E-Cadherin was used at a 1:75 dilution and anti Vimentin (Millipore #AB5733) was used at a 1:2000 dilution. Cells were washed, incubated with fluorescently-labeled secondary antibodies for one hour, followed by a 5 minute TO-PRO3 nuclear counterstain (Invitrogen #T3605) at room temperature, washed and mounted on slides with Pro-Long Gold anti-fade reagent (Invitrogen #P36934). Secondary fluorescent antibodies used were: anti mouse 488 nm (Invitrogen #A11029) 1:600 dilution; anti chicken TRITC (Chemicon #AP194R) 1:50 dilution. Stained cells were captured on a Leica DMRXE microscope/SP2 scanner using Leica Confocal Software (LCS).
The ability of cell lines to undergo epithelial to mesenchymal transition (EMT) was investigated using different extracellular ligand drivers. A panel of NSCLC, pancreatic, and breast cancer cell lines were screened by treatment of cells for 7 days in presence of respective ligands, either singly or in combination. Initial screening determined the ability of the ligand to cause morphology change, to down-regulate the epithelial marker, E-cadherin or to up-regulate a mesenchymal marker such as vimentin. Potential EMT cell models should up-regulate a mesenchymal marker and display morphology change. More robust models would show a down-regulation of E-cadherin expression.
A general note: A western blot detects proteins with antibodies after separation by electrophoresis.

In assay [4] the test system is H1650 cells. In words: Pharmacological inhibition of ligand-induced EMT (Western blot, morphology). The settings on record: MEK inhibitor 1 1 μM, LY294002 10 μM, JAK inhibitor 1 0.25 μM. Here is the method:
Supernatents were micro-centrifuged at max speed, 4° C. for 10 minutes. […] SDS PAGE was run using a Bis-Tris gel system (Invitrogen NuPAGE) with MOPS buffer (Invitrogen NP0001), transferred onto nitrocellulose using the iBLOT system (Invitrogen) and blocked in PBS-T (0.1% Tween 20), 5% non-fat milk or BSA in guidance with primary Ab supplier requirements. […] Secondary HRP labeled antibodies used were: anti Rabbit IgG HRP (Amersham NA934) 1:5000 dilution; anti Mouse IgG HRP (Sigma A2304) 1:2000 dilution. Membranes were visualized using the Supersignal ELISA Femto Maximum Sensitivity Substrate (Pierce).
Cells were treated with inhibitor 30 minutes prior to ligand stimulation. Medium, inhibitor and ligand were refreshed on experimental day 3 to 4. Cells were photographed and lysed in RIPA buffer on day 7 for Western blotting.
To determine what signaling pathways are important for EMT in this model, cells were stimulated for 7 days with OSM, HGF+OSM or OSM+TGFβ in the presence of inhibitors to MEK, PI3K and JAK, since these pathways are established downstream effectors of these ligands. After 7 days, we photographed the cells to show morphology and harvested the cells to analyze markers by immunoblot (FIG. 6).

Take “TGFβ: Transforming growth factor, beta 1, used at 10 ng/ml”: the “Change in doubling time” value in assay [1] is recorded as “no effect”. Moreover, in assay [2], the CDH1 gene change result is reported as “NC (Fold changes less than 3 are reported as NC)”, the CDH2 gene change entry is reported as “NC (Fold changes less than 3 are reported as NC)”, the CLDN3 gene change result was “NC (Fold changes less than 3 are reported as NC)” and the ERBB3 gene change entry is listed as “NC (Fold changes less than 3 are reported as NC)”. For the same compound, in assay [2], the ITGB3 gene change result is recorded as “NC (Fold changes less than 3 are reported as NC)”, the MTA3 gene change result is given as “NC (Fold changes less than 3 are reported as NC)”, the OCLN gene change result was “NC (Fold changes less than 3 are reported as NC)” and the PLAUR gene change entry is given as “NC (Fold changes less than 3 are reported as NC)”. Further, in assay [2], the SNAI1 gene change result is “NC (Fold changes less than 3 are reported as NC)”, the SNAI2 gene change is on record as 4.9 fold change, the SPARC gene change result is recorded as “NC (Fold changes less than 3 are reported as NC)” and the TJP3 gene change result is given as “NC (Fold changes less than 3 are reported as NC)”. In assay [2], the TWIST1 gene change entry is “NC (Fold changes less than 3 are reported as NC)”, the VCAN gene change was determined as 5.04 fold change, the VIM gene change stood at 3.99 fold change and the ZEB1 gene change result is on record as “NC (Fold changes less than 3 are reported as NC)”. For the same compound, the ZEB2 gene change entry in assay [2] is “NC (Fold changes less than 3 are reported as NC)”. The “Induction of EMT (E-cadherin, vimentin, morphology)” value in assay [3] is reported as “do not stimulate EMT by themselves”.
Take TNFα: the “Induction of EMT (E-cadherin, vimentin, morphology)” value in assay [3] is given as “do not stimulate EMT by themselves”.
For the compound “EGF: Epidermal Growth Factor, commercial protein ligand used at 100 ng/ml”, in assay [3], the “E-cadherin localization by confocal microscopy” value is reported as “absence of E-cadherin or mislocalization of E-cadherin to the cytoplasm” and the “Induction of EMT (E-cadherin, vimentin, morphology)” value was “partial EMT”.
Consider `CC(C)(C)c1nc2c3cc[nH]c(=O)c3c3cc(F)ccc3c2[nH]1` [JAK inhibitor 1], for which, in assay [4] (7 days HGF+OSM), the “Effect on HGF+OSM-induced EMT” value is “partial”. In assay [4] (7 days OSM+TGFβ), the “Effect on OSM+TGFβ-induced EMT” value is “near complete block”. The “Effect on OSM-induced EMT” value in assay [4] (7 days OSM) is “near complete block”. Further, the “Effect on EMT in all three ligand models (OSM, HGF+OSM, OSM+TGFβ)” value in assay [4] (7 days, immunoblot and morphology) is “blocked EMT to varying degrees”.
For the compound “HGF: Hepatocyte growth factor, commercial protein ligand used at 100 ng/ml to induce EMT in H1650 cells”, the “Change in doubling time” value in assay [1] is “modest decrease”. Moreover, in assay [2], the ACTN1 gene change entry is listed as “NC (Fold changes less than 3 are reported as NC)”, the CDH1 gene change result is given as “NC (Fold changes less than 3 are reported as NC)”, the CDH2 gene change entry was “NC (Fold changes less than 3 are reported as NC)” and the CLDN3 gene change result is listed as “NC (Fold changes less than 3 are reported as NC)”. In assay [2], the ERBB3 gene change entry is given as “NC (Fold changes less than 3 are reported as NC)”, the ITGB3 gene change entry is recorded as “NC (Fold changes less than 3 are reported as NC)”, the MTA3 gene change result is given as “NC (Fold changes less than 3 are reported as NC)” and the OCLN gene change entry is “NC (Fold changes less than 3 are reported as NC)”. Also, in assay [2], the PLAUR gene change entry is on record as “NC (Fold changes less than 3 are reported as NC)”, the SNAI1 gene change entry was “NC (Fold changes less than 3 are reported as NC)”, the SNAI2 gene change is reported as 6.43 fold change and the SPARC gene change entry is recorded as “NC (Fold changes less than 3 are reported as NC)”. Further, in assay [2], the TJP3 gene change entry is “NC (Fold changes less than 3 are reported as NC)”, the TWIST1 gene change entry was “NC (Fold changes less than 3 are reported as NC)”, the VCAN gene change came out at 6.71 fold change and the VIM gene change amounted to 4.92 fold change. In addition, in assay [2], the ZEB1 gene change result is reported as “NC (Fold changes less than 3 are reported as NC)” and the ZEB2 gene change entry is “NC (Fold changes less than 3 are reported as NC)”. In assay [3], the “E-cadherin localization by confocal microscopy” value is listed as “absence of E-cadherin or mislocalization of E-cadherin to the cytoplasm” and the “Induction of EMT (E-cadherin, vimentin, morphology)” value is on record as “partial EMT”.
